# Assay results published in EP4733310A1, “NOVEL PEPTIDE AND USE THEREOF” (Gemvax & Kael Co., Ltd., priority 2023, dated 2024).
# Square brackets hold non-standard residues; d marks the D form. Peptide text beside a SMILES is read from it. pGlu = O=C1CC[C@@H](C(=O)O)N1
# Columns and labels:
# Aβ1-42 = Aβ1-42 ELISA of cerebral cortex protein samples; format: in vivo; details: 5xFAD mice, 2 mg/kg subcutaneous, 3 times/week, 8 weeks, FIG. 6
# microglia = test: Anti-Iba-1 antibody staining of brain tissue sections (gliosis); format: in vivo; details: 5xFAD mice, 2 mg/kg subcutaneous, 3 times/week, 8 weeks, FIGS. 12 and 13
# Experimental: (§1) An efficacy evaluation of GV2001 based on an Alzheimer's disease animal model was conducted according to Table 3 below.
# (§2) 5xFAD mice are a well-established mouse model of Alzheimer's disease, in which amyloid-β is produced in neurons. Amyloid-β accumulation begins at approximately 2 months of age, neuronal damage progresses from around 6 months of age, and impairment in spatial learning ability develops from approximately 9 months of age. The mice were purchased from Jackson Laboratory, and seven-month-old mice obtained through breeding were used in the experiment.
# Mouse brain tissue sections were stained with an anti-Iba-1 antibody, which stains microglia, to analyze the level of gliosis in the mouse brain.
# amyloid-β plaques = test: Thioflavin-S staining of brain tissue sections; format: in vivo; details: 5xFAD mice, 2 mg/kg subcutaneous, 3 times/week, 8 weeks
# Experimental: as §1, §2
# (§3) Mouse brain tissue sections were stained with thioflavin-S and anti-amyloid antibody (6E10) to identify amyloid-β plaques and amyloid-β protein, respectively.
# [1] = Pharmacokinetic profile after subcutaneous administration to rats; format: in vivo; details: subcutaneous (SC), Sprague Dawley rats; FIG. 3
# Experimental: (§4) To determine the pharmacokinetic profile of GV2001 prepared in Example 1, plasma was collected from rats administered with GV2001. The collected plasma was pretreated by protein precipitation using nine times the volume of methanol containing 0.1% formic acid, followed by centrifugation at 16,100 g for 10 minutes.
# (§5) GV2001 and GV1001 were administered subcutaneously (SC) to three Sprague Dawley rats in each group. Blood samples were collected at 0.033, 0.083, 0.17, 0.25, 0.5, 1, and 2 hours after administration. The collected blood samples were centrifuged to separate plasma, pretreated, and analyzed using LC-MS. Pharmacokinetic parameters were calculated using the non-compartmental analysis model of Phoenix WinNonlin (Pharsight ver. 6.4, USA).
# amyloid-β = test: Immunoblot of hippocampal protein samples with anti-amyloid antibody (6E10); format: in vivo; details: 5xFAD mice, 2 mg/kg subcutaneous, 3 times/week, 8 weeks, FIG. 5
# Experimental: as §1, §2
# In order to determine amyloid-β levels in the brains of each group of mice, immunoblotting was performed on mouse hippocampal protein samples using an anti-amyloid antibody (6E10).
# amyloid-β protein = test: Anti-amyloid antibody (6E10) staining of brain tissue sections; format: in vivo; details: 5xFAD mice, 2 mg/kg subcutaneous, 3 times/week, 8 weeks; both the cerebral cortex and hippocampus; FIGS. 10 and 11
# Experimental: as §1, §2, §3
# 5xFAD mice = test: Morris Water Maze Test in an Alzheimer's disease mouse model; format: in vivo; details: 2 mg/kg subcutaneous, 3 times/week, 8 weeks
# Experimental: An efficacy evaluation of GV2001 based on an Alzheimer's disease animal model was conducted according to Table 3 below. [TABLE 3] [table] 5xFAD mice are a well-established mouse model of Alzheimer's disease, in which amyloid-β is produced in neurons. Amyloid-β accumulation begins at approximately 2 months of age, neuronal damage progresses from around 6 months of age, and impairment in spatial learning ability develops from approximately 9 months of age. The mice were purchased from Jackson Laboratory, and seven-month-old mice obtained through breeding were used in the experiment. […] On day 11, a probe test was performed. […] In addition, the time spent in the target quadrant was increased in the GV1001 and GV2001 groups, confirming improvements in spatial learning ability (FIG. 4C).
# [2] = Pharmacokinetic profile after intravenous administration to rats; format: in vivo; details: Sprague Dawley rats, FIG. 2
# Experimental: as §4
# as §5, with “intravenously (IV)” for “subcutaneously (SC)”, “of the” for “of”, “(Pharsight,” for “(Pharsight”, “USA) program.” for “USA).”
# [3] = Stability in human plasma (LC-MS, residual peptide); format: in vitro ADME; details: 5 µM, 37 °C, 10, 60 and 240 minutes, FIG. 1
# Experimental: GV2001 and GV1001 were each added to human plasma and diluted to a concentration of 5 µM, followed by incubation at 37 °C for 10, 60, and 240 minutes with stirring. The reaction mixture was collected and pretreated by plasma protein precipitation using methanol containing 0.1% formic acid. The resulting supernatants were collected and analyzed by LC-MS under the conditions shown in Table 1 below to determine the percentage of residual peptide relative to the initial peptide amount.
# [4] = test system: retinal pigment epithelial cell line ARPE-19; test: Epithelial-mesenchymal transition (cadherin 1, vimentin; confocal microscope) in an H2O2 cell model of age-related macular degeneration; format: cell-based; details: ARPE-19, H2O2 (50 µM), FIG. 15
# Experimental: (§6) A cell model of age-related macular degeneration was established by treating the retinal pigment epithelial cell line ARPE-19 with hydrogen peroxide (H2O2) to generate reactive oxygen species.
# (§7) The experimental groups were set up according to Table 4 below, and the efficacy of GV2001 was evaluated.
# The degree of epithelial-mesenchymal transition (EMT), which indicates retinal pigment epithelial cell degeneration, was evaluated by observing changes in cadherin 1, an epithelial cell marker, and vimentin, a mesenchymal cell marker, using a confocal microscope.
# [5] = test system: retinal pigment epithelial cells (ARPE-19); test: Reactive oxygen species detection with DCF-DA in an H2O2 cell model of age-related macular degeneration; format: cell-based; details: ARPE-19, H2O2 (50 µM), FIG. 14
# Experimental: as §6, §7
# Using 2',7'-dichlorofluorescin diacetate (DCF-DA), a dye for detecting reactive oxygen species, changes in reactive oxygen species levels in retinal pigment epithelial cells (ARPE-19) treated with GV2001 were examined under a fluorescence microscope.
# IL-1β, IL-6, and TNF-α = test: qRT-PCR of inflammatory cytokine mRNA in hippocampal samples; format: in vivo; details: 5xFAD mice, 2 mg/kg subcutaneous, 3 times/week, 8 weeks, FIG. 7
# Experimental: as §1, §2
# mRNA levels of cytokines involved in inflammation (IL-1β, IL-6, and TNF-α) were analyzed using qRT-PCR in mouse hippocampal samples.
# [6] = H2O2 for 2 hours then post-treatment for 24 hours, high-dose group
# [7] = pretreatment for 2 hours then H2O2 for 24 hours, low-dose group
smiles,measurement,setting,value
CC[C@H](C)[C@H](NC(=O)[C@H](Cc1ccccc1)NC(=O)[C@H](CCCNC(=N)N)NC(=O)[C@H](CC(C)C)NC(=O)[C@H](CCCNC(=N)N)NC(=O)[C@H](CO)NC(=O)[C@@H](NC(=O)[C@H](CC(C)C)NC(=O)[C@H](CC(C)C)NC(=O)[C@H](C)NC(=O)[C@@H]1CCCN1C(=O)[C@H](CCCNC(=N)N)NC(=O)[C@H](C)NC(=O)[C@H](CCC(=O)O)NC(=O)[C@@H]1CCC(=O)N1)[C@@H](C)O)C(=O)N1CCC[C@H]1C(=O)N[C@@H](CCCCN)C(N)=O [GV2001] ([pGlu]EARPALLTSRLRFIPK-NH2),amyloid-β levels (Aβ1-42 ELISA),Aβ1-42,reduced level of amyloid-β protein
same,"gliosis levels (microglia staining, anti-Iba-1)",microglia,more pronounced decrease in gliosis levels
same,amyloid-β plaque deposition (thioflavin-S),"amyloid-β plaques; cerebral cortex, FIG. 8",reduction in amyloid-β plaque deposition
same,amyloid-β plaque deposition (thioflavin-S),"amyloid-β plaques; hippocampus, FIG. 9",substantially reduced plaque deposition
same,in vivo stability (remaining in the body without degradation),[1],greater in vivo stability than GV1001
same,"amyloid-β levels (immunoblot, 6E10)",amyloid-β,reduction
same,amyloid-β protein levels (6E10 antibody staining),amyloid-β protein,more pronounced decrease in amyloid-β protein levels
same,latency to locate the hidden platform,"5xFAD mice; 10-day training period, FIG. 4A",marked improvements in latency
same,number of platform-zone crossings,"5xFAD mice; probe test on day 11, FIG. 4B",exhibited improvements
same,time spent in the target quadrant,"5xFAD mice; probe test on day 11, FIG. 4C",increased
same,AUCt of GV2001 relative to GV1001,[2],more than four times higher
same,AUC(0-t),"[2]; rat, plasma, sampling up to 2 hours",107 ng·h/mL
same,percentage of residual peptide relative to the peptide amount before reaction,[3],higher at each time point than that of GV1001
same,"progression of EMT (cadherin 1, vimentin)",[4]; [6],reduced the progression of EMT
same,"progression of EMT (cadherin 1, vimentin)",[4]; [7],reduced the progression of EMT
same,DCF-DA fluorescence expression (reactive oxygen species),[5]; [6],decreased
same,DCF-DA fluorescence expression (reactive oxygen species),[5]; [7],decreased
same,"mRNA levels of cytokines involved in inflammation (IL-1β, IL-6, and TNF-α)","IL-1β, IL-6, and TNF-α",greater reduction in cytokine expression compared to the 5xFAD group
